Among the data in PubChem BioAssay (NCI) are TGI values, retold here.

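Briefly, cells in 96-well plates were exposed to five compound concentrations for 48 h, and endpoints were estimated by linear interpolation. The concentration for full growth arrest is given as TGI.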 Some results are limits rather than exact numbers.

Holding throughout (test): NCI tumour cell line growth inhibition, 48 h
Assay [1] deals with MDA-MB-435.
The test system of assay [2] is K-562 leukemia.
Assay [3] deals with PC-3 prostate.
In assay [4] the test system is NCI-H23 lung.
Assay [5] concerns M14 melanoma.
Assay [6] concerns TK-10 renal.
The subject of assay [7] is DU-145 prostate.
The subject of assay [8] is MALME-3M melanoma.
Assay [9] concerns T-47D breast.
Assay [10] concerns A549 NSCLC.

As to `CC(=O)Oc1c2oc3ccc(Cl)cc3c(=O)c2c(O)c2ccsc12`, the TGI in assay [1], in [2], in assay [3], in assay [4], in [5] and in [6] was greater than 100 µM in each case. Further, the TGI in assay [7] is greater than 100 µM; in assay [8], greater than 100 µM; in assay [9], 86.7 µM; in [10], greater than 100 µM.
Regarding `COC1OC2COC1(OC)C1OC(C)(C)OC21` (stereo not given), the TGI in assay [1], in assay [2], in assay [3], in assay [4], in assay [5] and in assay [6] was greater than 100 µM throughout. For the same molecule, the TGI in assay [7], in [8], in assay [9] and in assay [10] was greater than 100 µM throughout.
For the molecule `Nc1ccccc1CC(O)C(=O)O` (stereo not given), the TGI in assay [1], in assay [2], in assay [3], in assay [4], in assay [5] and in [6] was greater than 100 µM throughout. In addition, the TGI in assay [7], in assay [8], in assay [9] and in assay [10] was greater than 100 µM throughout.
Turning to `O=c1oc2ccccc2cc1-c1cn2cc(Cl)ccc2n1`, the TGI in [1] is 0.138 µM; in assay [2] it was greater than 100 µM; in [3] it was 16.4 µM; in assay [4] it was 21.1 µM; in assay [5] it was 15.2 µM; in assay [6], 22.3 µM. For the same molecule, the TGI in assay [7] was greater than 36.8 µM; in assay [8], 4.77 µM; in [9], greater than 54.9 µM; in assay [10], 16.8 µM.
Turning to `N#Cc1c(-c2ccc(Cl)cc2)c2c(n(C3OC(CO)C(O)C(O)C3O)c1=S)CCC2` (stereo not given), the TGI in assay [1] was 46.1 µM; in [2], 38.5 µM; in assay [3], greater than 100 µM; in assay [4], 70.6 µM; in [5], 47.2 µM; in assay [6], greater than 100 µM. For the same molecule, the TGI in [7] was greater than 100 µM; in assay [8], 51.8 µM; in [9] it was 45.8 µM; in [10], greater than 100 µM.
For `CCOC(=O)c1cnc2oc3ccc(O)cc3c2c1-c1ccccc1`, the TGI in assay [1], in assay [2], in assay [3], in [4], in assay [5] and in assay [6] was greater than 100 µM each time. Also, the TGI in assay [7], in [8], in assay [9] and in [10] was greater than 100 µM each time.
As to `O=c1c2cc(I)ccc2nc(-c2cccs2)n1-c1ccc(O)cc1`, the TGI in assay [1] is 30.8 µM; in [2] it was greater than 100 µM; in assay [3] it was 22.5 µM; in [4] it was 36.7 µM; in assay [5], 29.3 µM; in assay [6], 23.3 µM. In addition, the TGI in assay [7] worked out at 19.7 µM; in assay [8] it was 20.6 µM; in assay [9], 10.7 µM; in assay [10] it was 27.4 µM.
As for `CCCC(=O)NC(Nc1ccc(S(=O)(=O)Nc2nc(C)cc(C)n2)cc1)(C(F)(F)F)C(F)(F)F`, the TGI in assay [1], in assay [2], in assay [3], in assay [4], in assay [5] and in [6] was greater than 100 µM throughout. Also, the TGI in assay [7], in assay [8], in assay [9] and in assay [10] was greater than 100 µM throughout.
Consider `c1ccc2c(c1)CCc1c-2n(CCN2CCOCC2)c2ccccc12`, for which the TGI in assay [1], in assay [2], in assay [3], in [4], in assay [5] and in [6] was greater than 100 µM each time. The TGI in assay [7] is greater than 100 µM; in assay [8] it was 32.2 µM; in [9] it was greater than 100 µM; in [10], greater than 100 µM.
Turning to `COC(=O)C(CSSC[C@H](N/C(C)=C/C(C)=O)C(=O)OC)N/C(C)=C/C(C)=O` (stereo not given in full), the TGI in assay [1] was greater than 100 µM; in assay [2] it was greater than 100 µM; in [3], greater than 100 µM; in assay [4], greater than 100 µM; in [5] it was greater than 100 µM; in assay [6], 39.1 µM. In addition, the TGI in assay [7] is 87.5 µM; in assay [8] it was 68.6 µM; in assay [9] it was 58 µM; in assay [10], greater than 100 µM.
As for `CCN(C(=S)N[C@H](C(=O)N[C@@H](C)C(=O)OC)C(C)C)c1ccccc1`, the TGI was greater than 100 µM in assay [1]; 80.2 µM in assay [2]; greater than 100 µM in assay [3]; greater than 100 µM in assay [4]; greater than 100 µM in assay [5]; greater than 100 µM in assay [6]. The TGI in [7] was greater than 100 µM; in [8], 98.2 µM; in assay [9], greater than 100 µM; in assay [10], greater than 100 µM.
`Cc1c(NC(=O)CSC(=S)N2CCN(Cc3ccccc3)CC2)c(=O)n(-c2ccccc2)n1C`: the TGI in [1], in [2], in [3], in assay [4], in assay [5] and in assay [6] was greater than 100 µM each time. Besides, the TGI in [7], in [8], in [9] and in assay [10] was greater than 100 µM throughout.
Consider `O=C1/C(=N\S(=O)(=O)c2ccccc2)C([n+]2ccc(Cc3ccccc3)cc2)=C([O-])c2ccccc21`, for which the TGI in [1] was 0.377 µM; in assay [2] it was greater than 100 µM; in [3], 9.39 µM; in [4], 1.36 µM; in assay [5] it was 2.68 µM; in [6], 6.2 µM. The TGI turned out to be 2.89 µM in assay [7], 1.73 µM in assay [8], 13 µM in assay [9] and 3.74 µM in assay [10].
